Each structure is given as a SMILES string.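 Each compound was tested at five concentrations against cells in 96-well plates for 48 hours. TGI denotes the concentration required for complete inhibition of growth.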 Some results are limits rather than exact numbers.

Among the test systems are SW-620 colon; HCT-116 colon; SF-539 CNS; EKVX NSCLC; NCI-H460 lung; OVCAR-3 ovarian; TK-10 renal; SK-MEL-5 melanoma; UACC-257 melanoma; HOP-62 NSCLC; SN12C renal; OVCAR-8 ovarian; HS 578T breast; DU-145 prostate; T-47D breast.
What all share (assay): inhibition of tumour cell growth, NCI panel, 48 h

With `Cc1cccc(C(C)C)c1NC(=O)/C(Cc1c([N+](=O)[O-])cccc1[N+](=O)[O-])=N/NC(=O)CC#N`, the TGI in the test on SW-620 colon, in the test with HCT-116 colon, with SF-539 CNS, in the test on EKVX NSCLC, in the test with NCI-H460 lung and with OVCAR-3 ovarian was > 100 µM throughout. The TGI with TK-10 renal and in the test with SK-MEL-5 melanoma was > 100 µM each time.
On to `O=[N+]([O-])c1ccc2c(c1)S(=O)(=O)N1Cc3ccccc3CCN21`, for which the TGI in the test on SW-620 colon, in the test with HCT-116 colon, in the test on SF-539 CNS, in the test with EKVX NSCLC, in the test with NCI-H460 lung and in the test on OVCAR-3 ovarian was > 100 µM throughout. Moreover, the TGI with TK-10 renal, in the test on UACC-257 melanoma, in the test with HOP-62 NSCLC, with SN12C renal, in the test with OVCAR-8 ovarian and with SK-MEL-5 melanoma was > 100 µM in each case. The TGI in the test on HS 578T breast and with DU-145 prostate was > 100 µM in each case.
For `O=C(O)C1CCCN(CCc2c[nH]c3ccccc23)C1` (centres undefined), the TGI in the test on SW-620 colon, in the test on HCT-116 colon, in the test on SF-539 CNS, in the test with EKVX NSCLC, with NCI-H460 lung and in the test on OVCAR-3 ovarian was > 100 µM throughout. For the same compound, the TGI with TK-10 renal, in the test on UACC-257 melanoma, in the test on HOP-62 NSCLC, in the test on SN12C renal, in the test with OVCAR-8 ovarian and in the test with T-47D breast was > 100 µM throughout. In addition, the TGI with DU-145 prostate is > 100 µM.
On to `O=C(Cn1c2c(c3ccccc31)CCCC2)N1CCCC1`, for which the TGI in the test on SW-620 colon, in the test with HCT-116 colon, in the test with SF-539 CNS, in the test with EKVX NSCLC, in the test with NCI-H460 lung and in the test with OVCAR-3 ovarian was > 100 µM throughout. For the same compound, the TGI with TK-10 renal, in the test with UACC-257 melanoma, in the test on HOP-62 NSCLC, with SN12C renal, with OVCAR-8 ovarian and with SK-MEL-5 melanoma was > 100 µM throughout. Moreover, in the test on HS 578T breast, the TGI turned out to be 87.2 µM.
Turning to `CCC(C)(C)C1CCC2c3c([nH]c4ccccc34)C3C(=O)N(c4ccc(OC)cc4)C(=O)C3C2C1` (centres undefined), the TGI in the test with SW-620 colon was > 100 µM; with HCT-116 colon it was 37.2 µM; in the test on SF-539 CNS, 33.5 µM; with EKVX NSCLC, > 100 µM; in the test with NCI-H460 lung, > 100 µM; in the test on OVCAR-3 ovarian it was 7.28 µM. Also, the TGI with TK-10 renal was 56.2 µM; with UACC-257 melanoma, > 100 µM; with HOP-62 NSCLC, 23.2 µM; in the test on SN12C renal, 6.67 µM; in the test with OVCAR-8 ovarian it was 30.4 µM; in the test on T-47D breast, 38.4 µM. For the same compound, in the test with DU-145 prostate, the TGI was found to be 28.9 µM.
Regarding `N#CC12CNCC1CN=N2` (centres undefined), the TGI in the test with SW-620 colon, in the test with HCT-116 colon, in the test on EKVX NSCLC, in the test with NCI-H460 lung, in the test on OVCAR-3 ovarian and in the test on TK-10 renal was > 100 µM in each case. The TGI in the test on UACC-257 melanoma, with HOP-62 NSCLC, with SN12C renal, in the test with OVCAR-8 ovarian, in the test on SK-MEL-5 melanoma and with T-47D breast was > 100 µM each time. Besides, the TGI in the test with DU-145 prostate was > 100 µM.
Consider `CC(C)(C)OC(=O)CN1C(=O)CC1CC(=O)c1ccccc1` (centres undefined), for which the TGI in the test with SW-620 colon came out at 31.6 µM; in the test on HCT-116 colon it was 49.7 µM; with SF-539 CNS, 34.9 µM; in the test on EKVX NSCLC it was 35.7 µM; in the test with NCI-H460 lung, 77.1 µM; with OVCAR-3 ovarian, 33.5 µM. Moreover, the TGI in the test with TK-10 renal turned out to be 93.2 µM; in the test with UACC-257 melanoma, 35.2 µM; in the test with HOP-62 NSCLC it was 34.2 µM; in the test with SN12C renal, 51.1 µM; in the test with OVCAR-8 ovarian, 32.6 µM; in the test on SK-MEL-5 melanoma, 33.1 µM. Also, the results for the TGI with HS 578T breast and in the test on DU-145 prostate were 84.2 µM and 34.2 µM, respectively.
As for `Oc1c2cc(Cl)cc1COCc1cc(Cl)cc(c1O)COCc1cc(Cl)cc(c1O)COC2`, the TGI in the test on SW-620 colon, with HCT-116 colon, in the test with EKVX NSCLC, in the test on NCI-H460 lung, in the test with OVCAR-3 ovarian and in the test with TK-10 renal was > 100 µM each time. In addition, the TGI was > 100 µM in the test on UACC-257 melanoma; > 100 µM in the test with HOP-62 NSCLC; 32.9 µM in the test on OVCAR-8 ovarian; > 100 µM in the test on SK-MEL-5 melanoma; > 100 µM in the test with T-47D breast; > 100 µM in the test with DU-145 prostate.
As for `CC(=O)N(C(C)=O)n1c(Cc2ccc(Cl)cc2)n[nH]c1=O`, the TGI in the test on SW-620 colon, with HCT-116 colon, in the test on SF-539 CNS, with EKVX NSCLC, with NCI-H460 lung and with OVCAR-3 ovarian was > 100 µM each time. For the same compound, the TGI was > 100 µM in the test on TK-10 renal; > 100 µM in the test on UACC-257 melanoma; 98.8 µM in the test with HOP-62 NSCLC; > 100 µM in the test with SN12C renal; > 100 µM in the test with OVCAR-8 ovarian; > 100 µM in the test on SK-MEL-5 melanoma. The TGI with HS 578T breast and in the test on DU-145 prostate was > 100 µM in each case.
As for `Nc1nc(Cl)c(CO)c(NCC2(CO)CC(CCc3ccccc3)C2)n1` (centres undefined), the TGI with SW-620 colon is 54.2 µM; with HCT-116 colon, 31.9 µM; in the test on SF-539 CNS, > 100 µM; with EKVX NSCLC, > 100 µM; in the test with NCI-H460 lung it was 56.9 µM; with OVCAR-3 ovarian, 63.1 µM. Besides, the TGI is > 100 µM with TK-10 renal; 32.4 µM in the test with UACC-257 melanoma; 99.3 µM in the test on HOP-62 NSCLC; > 100 µM in the test on SN12C renal; 35.6 µM in the test on OVCAR-8 ovarian; 39.4 µM with SK-MEL-5 melanoma. For the same compound, in the test with DU-145 prostate, the TGI is > 100 µM.
For the compound `N#CC1C(=O)N(c2ccccc2)NC12OC(=O)c1ccncc12` (centres undefined), the TGI in the test with SW-620 colon, in the test on HCT-116 colon, in the test on SF-539 CNS, with EKVX NSCLC, in the test on NCI-H460 lung and in the test on OVCAR-3 ovarian was > 20 µM throughout. Besides, the TGI with UACC-257 melanoma, in the test with SN12C renal, with OVCAR-8 ovarian, in the test on SK-MEL-5 melanoma, in the test on T-47D breast and in the test on DU-145 prostate was > 20 µM each time.

The values above are taken from PubChem BioAssay (NCI).
